Reference: PubChem BioAssay AID1963425 (Molecular Pharmacology Branch, DTP, NCI, 2024)

System: 323965-272-R-J2-PDC complex spheroid growth, % test/control
Test: Anticancer human tumor 323965-272-R-J2-PDC patient-derived pancreatic carcinoma cell line growth inhibition [Asc]
Details: for IC50: curve of first compound; for viability, T/C: stronger effect = lower value
Summary of the method: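 Concentration series start at each agent's clinical Cmax, or at 10 microM when none is established, and drop in half-log steps; agents are applied alone or together to complex spheroids built with HUVEC and hMSC.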

[1] = second compound 0.00316 µM, first compound 0.0316 µM
[2] = second compound 0.00316 µM, first compound 0.1 µM
[3] = second compound 0.00316 µM, first compound 0.316 µM
[4] = second compound 0.00316 µM, first compound 1 µM
[5] = second compound 0.00316 µM, first compound 3.16 µM
[6] = second compound 0.00316 µM, first compound 10 µM
[7] = second compound 0.01 µM, first compound 0.0316 µM
[8] = second compound 0.01 µM, first compound 0.1 µM
[9] = second compound 0.01 µM, first compound 0.316 µM
[10] = second compound 0.01 µM, first compound 1 µM
[11] = second compound 0.01 µM, first compound 3.16 µM
[12] = second compound 0.01 µM, first compound 10 µM
[13] = second compound 0.0316 µM, first compound 0.0316 µM
[14] = second compound 0.0316 µM, first compound 0.1 µM
[15] = second compound 0.0316 µM, first compound 0.316 µM
[16] = second compound 0.0316 µM, first compound 1 µM
[17] = second compound 0.0316 µM, first compound 3.16 µM
[18] = second compound 0.0316 µM, first compound 10 µM
[19] = second compound 0.1 µM, first compound 0.0316 µM
[20] = second compound 0.1 µM, first compound 0.1 µM
[21] = second compound 0.1 µM, first compound 0.316 µM
[22] = second compound 0.1 µM, first compound 1 µM
[23] = second compound 0.1 µM, first compound 3.16 µM
[24] = second compound 0.1 µM, first compound 10 µM
[25] = second compound 0.316 µM, first compound 0.0316 µM
[26] = second compound 0.316 µM, first compound 0.1 µM
[27] = second compound 0.316 µM, first compound 0.316 µM
[28] = second compound 0.316 µM, first compound 1 µM
[29] = second compound 0.316 µM, first compound 3.16 µM
[30] = second compound 0.316 µM, first compound 10 µM
[31] = second compound 1 µM, first compound 0.0316 µM
[32] = second compound 1 µM, first compound 0.1 µM
[33] = second compound 1 µM, first compound 0.316 µM
[34] = second compound 1 µM, first compound 1 µM
[35] = second compound 1 µM, first compound 3.16 µM
[36] = second compound 1 µM, first compound 10 µM
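Note: compound exposure lasted 7 days starting three days after spheroid seeding.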
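Throughout, for viability, T/C: 100% = DMSO vehicle control wells with viability set relative to vehicle.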

With `C#Cc1c(F)ccc2cc(O)cc(-c3ncc4c(N5CC6CCC(C5)N6)nc(OCC56CCCN5CC(F)C6)nc4c3F)c12` (centres undefined) + CNC(C)C(=O)NC1CN(S(=O)(=O)c2cccc(S(=O)(=O)N3CCC4CCC(C(=O)NC(c5ccccc5)c5ccccc5)N4C(=O)C(NC(=O)C(C)NC)C3)c2)CCC2CCC(C(=O)NC(c3ccccc3)c3ccccc3)N2C1=O the IC50 (second compound 0.00316 µM) was over 10 µM, the IC50 (second compound 0.01 µM) was over 10 µM and the IC50 (second compound 0.0316 µM) was over 10 µM. For the same compound, the IC50 (second compound 0.1 µM) was over 10 µM, the IC50 (second compound 0.316 µM) was over 10 µM and the IC50 (second compound 1 µM) was over 10 µM. The viability, T/C [1] was 109%, the viability, T/C [2] was 92.7% and the viability, T/C [3] was 94.1%. It also gave a viability, T/C [4] of 94.9%, a viability, T/C [5] of 70.2% and a viability, T/C [6] of 61.8%. It also gave a viability, T/C [7] of 117%, a viability, T/C [8] of 102% and a viability, T/C [9] of 96.4%. It also gave a viability, T/C [10] of 87.4%, a viability, T/C [11] of 74.2% and a viability, T/C [12] of 63.2%. For the same compound, the viability, T/C [13] was 127%, the viability, T/C [14] was 102% and the viability, T/C [15] was 106%. For the same compound, the viability, T/C [16] was 89.7%, the viability, T/C [17] was 70.4% and the viability, T/C [18] was 58.3%. It also gave a viability, T/C [19] of 101%, a viability, T/C [20] of 96.6% and a viability, T/C [21] of 95.4%. It also gave a viability, T/C [22] of 91.2%, a viability, T/C [23] of 62.3% and a viability, T/C [24] of 70.2%. The viability, T/C [25] was 101%, the viability, T/C [26] was 95.1% and the viability, T/C [27] was 96.5%. It also gave a viability, T/C [28] of 82.4%, a viability, T/C [29] of 74% and a viability, T/C [30] of 65.4%. The viability, T/C [31] was 90.9%, the viability, T/C [32] was 105% and the viability, T/C [33] was 92.9%. It also gave a viability, T/C [34] of 91%, a viability, T/C [35] of 66.8% and a viability, T/C [36] of 53.2%.

For `C=C(F)C(=O)N1CCN(c2nc(OCC3CCCN3C)nc3c2CCN(c2cccc4cccc(Cl)c24)C3)CC1CC#N` (centres undefined) + CNC(C)C(=O)NC1CN(S(=O)(=O)c2cccc(S(=O)(=O)N3CCC4CCC(C(=O)NC(c5ccccc5)c5ccccc5)N4C(=O)C(NC(=O)C(C)NC)C3)c2)CCC2CCC(C(=O)NC(c3ccccc3)c3ccccc3)N2C1=O, the IC50 (second compound 0.00316 µM) was 3.55 µM, the IC50 (second compound 0.01 µM) was 3.55 µM and the IC50 (second compound 0.0316 µM) was 3.7 µM. For the same compound, the IC50 (second compound 0.1 µM) was 3.45 µM, the IC50 (second compound 0.316 µM) was 3.72 µM and the IC50 (second compound 1 µM) was 3.38 µM. For the same compound, the viability, T/C [1] was 54.3%, the viability, T/C [2] was 48.5% and the viability, T/C [3] was 50.5%. For the same compound, the viability, T/C [4] was 56.1%, the viability, T/C [5] was 67.9% and the viability, T/C [6] was 0.23%. It also gave a viability, T/C [7] of 62.3%, a viability, T/C [8] of 44.2% and a viability, T/C [9] of 48.8%. It also gave a viability, T/C [10] of 56.6%, a viability, T/C [11] of 66.3% and a viability, T/C [12] of 0.24%. It also gave a viability, T/C [13] of 55.8%, a viability, T/C [14] of 54.8% and a viability, T/C [15] of 47.1%. For the same compound, the viability, T/C [16] was 55.4%, the viability, T/C [17] was 76% and the viability, T/C [18] was 0.21%. It also gave a viability, T/C [19] of 52%, a viability, T/C [20] of 46.7% and a viability, T/C [21] of 48.5%. For the same compound, the viability, T/C [22] was 53.4%, the viability, T/C [23] was 69.9% and the viability, T/C [24] was 0.25%. It also gave a viability, T/C [25] of 55.5%, a viability, T/C [26] of 53.6% and a viability, T/C [27] of 59.5%. For the same compound, the viability, T/C [28] was 53.8%, the viability, T/C [29] was 68.3% and the viability, T/C [30] was 0.21%. The viability, T/C [31] was 56.8%, the viability, T/C [32] was 49.1% and the viability, T/C [33] was 38.6%. The viability, T/C [34] was 56%, the viability, T/C [35] was 65% and the viability, T/C [36] was 0.22%.
